# Test system: MRSA-4
# Assay: MRSA skin infection model
# Assay type: in vivo, BALB/c mice
# Description: All animal experiments were conducted in accordance with the NIH Guide for the Care and Use of Laboratory Animals and the institutional guidelines of West China Hospital, Sichuan University. The study was approved by the Institutional Animal Care and Use Committee (HX20220224085). Female BALB/c mice (6–8 weeks old) were obtained from Chengdu DOSSY Experimental Animal Co., Ltd. (Chengdu, China) and randomly assigned to five groups (n = 6 per group). On day 0, mice were subcutaneously inoculated with 2 × 10^8 CFUs of MRSA-4 suspended in 50 μL of sterile PBS. Treatment commenced 24 h post-infection. Mice received once daily subcutaneous injections at the site of infection for four consecutive days with either AA (0.2, 0.4, or 0.8 mg/kg), vancomycin (0.8 mg/kg, positive control), or PBS (negative control). Lesion progression was monitored daily by photographing the infected area, and wound sizes were quantified using ImageJ software (Version 1.42q, NIH, USA). On day 5 post-infection, mice were anesthetized and euthanized. The whole lesioned skin tissues were aseptically excised, homogenized in 1 mL of sterile PBS, and serially diluted. Aliquots were plated on LB agar and incubated at 37°C overnight to determine bacterial burdens.
# Building on its rapid bactericidal activity in vitro and unique FtsZ-binding profile, we next evaluated the in vivo therapeutic efficacy of AA using a murine skin infection model. The model was established in BALB/c mice by subcutaneous inoculation with 2 × 10^8 CFU of MRSA-4 (Figure 7A). Treatment began 24 h post-infection and consisted of daily subcutaneous injections at the infection site for four consecutive days with AA (0.2, 0.4, or 0.8 mg/kg), vancomycin (at 0.8 mg/kg; positive control), or PBS (negative control). Therapeutic outcomes were assessed on day 5 post-infection by quantifying bacterial burden, visually monitoring wound healing, and measuring abscess size.
# [1] = 0.8 mg/kg s.c. once daily for 4 days, day 5, vs PBS
smiles,measurement,setting,value
"C[C@H]1[C@H](C)CC[C@]2(C(=O)O)CC[C@]3(C)C(=CC[C@@H]4[C@@]5(C)C[C@@H](O)[C@H](O)[C@@](C)(CO)[C@@H]5CC[C@]43C)[C@H]12 [AA, asiatic acid]",wound healing (visual inspection),0.8 mg/kg s.c. once daily for 4 days,substantial amelioration of symptoms
same,abscess size,[1],significantly reduced abscess dimensions
same,bacterial load in infected skin tissues,[1],significantly reduced bacterial counts
same,bacterial load in infected skin tissues,"0.2 and 0.4 mg/kg s.c. once daily for 4 days, day 5, vs PBS",modest but dose-responsive decreases in bacterial load
same,wound healing (visual inspection),low-dose (0.2 and 0.4 mg/kg) s.c. once daily for 4 days,"moderate, dose-dependent improvements in wound appearance"

# From PMC12213745, “Compounds from Cyclocarya paliurus leaves inhibit binary division of methicillin-resistant Staphylococcus aureus by disrupting FtsZ dynamic” (Frontiers in Microbiology, 2025)
